Measured values as given in patent publication US20260124213A1, “STAPHYLOCOCCUS AUREUS PBP4 INHIBITORS AND METHOD OF USE” (UNIVERSITY OF ROCHESTER, priority 2022, published 2026).
Values joined by “and” are separate entries in the source; they are usually repeats but may differ in a detail not shown here. Equal values may be shown once.

What was measured:
Format in all cases: cell-based, Staphylococcus aureus
MRSA strain BAA-1770 = assay: Broth microdilution antibiotic potentiation; conditions: Ex. 3 compound at 60 μM
Procedure: Broth Microdilution Method for Antibiotic Potentiation with MRSA Strains. Bacteria were cultured for 6 hours in CAMHB and sub-cultured to 5×10^5 CFU/mL in CAMHB. Subcultures were aliquoted (4 mL) into culture tubes and then inoculated with compound from 10 mM or 100 mM stock in DMSO to the desired concentration. […] Bacteria treated with antibiotic alone served as the control. Samples from the secondary culture tubes were then aliquoted (200 μL) into the first row of wells of a 96-well microtiter plate. Rows 2-11 were filled (100 μL) with the remaining 4 mL of bacterial subculture containing the adjuvant. Row 12 was filled (100 μL) with uninoculated media. From row 1, 100 μL was transferred to row two and mixed 5-8 times before being transferred to row 3. This procedure was used to serial dilute the rest of the rows through 10. The microtiter plate was then covered in Press 'n Seal and incubated at 37° C.

strain CRBΔpbp4 = assay: microbe, parasite or virus in culture; conditions: CRBΔpbp4
[1] = tested on: MRSA strain ATCC BAA-1556; assay: Broth microdilution antibiotic potentiation; conditions: ATCC BAA-1556
Method in brief: (§1)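 MRSA grown 6 h in CAMHB, subcultured to 5×10^5 CFU/mL, then adjuvant compound added from DMSO stock. Antibiotic serially 2-fold diluted across plate in adjuvant-containing culture, antibiotic-alone as control; plates incubated at 37° C.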

MRSA strain AH-2204 = assay: Broth microdilution antibiotic potentiation; conditions: AH-2204
Method in brief: as §1

MRSA strain AH-1263 = assay: Broth microdilution antibiotic potentiation; conditions: AH-1263
Method in brief: as §1

[2] = Ex. 3 compound at 60 μM (18 and 19 at 30 μM)

O=C(Nc1ccc2[nH]c(-c3cccs3)nc2c1)c1ccco1 [Compound 1 (7729837)]
Oxacillin MIC fold reduction (MRSA strain BAA-1770): 32
Cmpd (putative PBP4 inhibitor) MIC, Alone (strain CRBΔpbp4): 400 µM
Fold-decrease in ceftobiprole resistance in combination (strain CRBΔpbp4): 0
Cmpd concentration, Combination (strain CRBΔpbp4; with ceftobiprole): 50 µM
BPR (ceftobiprole) MIC, Combination (strain CRBΔpbp4; with putative PBP4 inhibitor): 0.25 µg/mL
Ampicillin MIC [1, 2]: 8 µg/mL
Ampicillin MIC fold reduction [1, 2]: (2)
Cefotaxime MIC [1, 2]: 16 µg/mL
Cefotaxime MIC fold reduction [1, 2]: (2)
Oxacillin MIC [1, 2]: 2 µg/mL
Amoxicillin MIC ([1]; with Ex. 3 compound): 8 µg/mL
Cephalothin MIC ([1]; with Ex. 3 compound): 1 µg/mL
Cephalothin MIC fold reduction ([1]; with Ex. 3 compound): 16
Penicillin G MIC ([1]; with Ex. 3 compound): 2 µg/mL
Piperacillin MIC ([1]; with Ex. 3 compound): 8 µg/mL
Piperacillin MIC fold reduction ([1]; with Ex. 3 compound): 2
Ampicillin MIC (MRSA strain AH-2204; [2]): 2 µg/mL
Cefotaxime MIC (MRSA strain AH-2204; [2]): 8 µg/mL
Cefotaxime MIC fold reduction (MRSA strain AH-2204; [2]): (2)
Oxacillin MIC (MRSA strain AH-2204; [2]): 0.5 µg/mL and 0.6 µg/mL
Amoxicillin MIC (MRSA strain AH-2204; with Ex. 3 compound): 2 µg/mL
Cephalothin MIC (MRSA strain AH-2204; with Ex. 3 compound): 0.125 µg/mL
Cephalothin MIC fold reduction (MRSA strain AH-2204; with Ex. 3 compound): 32
Penicillin G MIC (MRSA strain AH-2204; with Ex. 3 compound): 1 µg/mL
Piperacillin MIC (MRSA strain AH-2204; with Ex. 3 compound): 4 µg/mL
Ampicillin MIC (MRSA strain AH-1263; [2]): 8 µg/mL
Ampicillin MIC fold reduction (MRSA strain AH-1263; [2]): (2)
Cefotaxime MIC (MRSA strain AH-1263; [2]): 8 µg/mL
Cefotaxime MIC fold reduction (MRSA strain AH-1263; [2]): (4)
Oxacillin MIC (MRSA strain AH-1263; [2]): 1 µg/mL
Amoxicillin MIC (MRSA strain AH-1263; with Ex. 3 compound): 8 µg/mL
Cephalothin MIC (MRSA strain AH-1263; with Ex. 3 compound): 1 µg/mL
Cephalothin MIC fold reduction (MRSA strain AH-1263; with Ex. 3 compound): 32
Penicillin G MIC (MRSA strain AH-1263; with Ex. 3 compound): 4 µg/mL
Penicillin G MIC fold reduction (MRSA strain AH-1263; with Ex. 3 compound): 2
Piperacillin MIC (MRSA strain AH-1263; with Ex. 3 compound): 8 µg/mL
Piperacillin MIC fold reduction (MRSA strain AH-1263; with Ex. 3 compound): 2
